SMILES	melting point [°C]
O=C1Nc2ccc(F)c(F)c2C(=O)N2CCC[C@@H]12	> 250
Cc1noc(NS(=O)(=O)c2ccsc2C/C=C/c2ccc3c(c2)OCO3)c1Br	147 to 149
CCCOc1c(OC)cc(Cl)c2c1CN1CCc3cc(OC)c(OCc4ccccc4)cc3C1C2 (stereo unspecified)	118 to 120
CCCCc1nc2c(n1Cc1ccc(-c3ccccc3S(=O)(=O)NC(=O)NCCC)cc1)C(=CC(=O)OCC)CCS2	170
CS(=O)(=O)NC(=O)C(Cc1ccc(OCc2ccccc2)cc1)NC(=O)c1cn2cc(-c3ccc(Cl)cc3)ccc2n1 (stereo unspecified)	232
Clc1ccc2c(c1)[C@@H](c1ccccc1)[C@H]1CN(Cc3ccccc3)C[C@H]1C2 (racemic)	115 to 117
Cc1c(C#N)cccc1C(=O)c1ccc(Cl)cc1	84
Cc1cc(C#N)cn2cc(-c3ccc(-c4ccc(C#N)cc4)o3)nc12	276 to 277
O=C(Cc1cccnc1)N1CCC(C2=c3ccc(Cl)cc3=CCc3c(Cl)ccnc32)CC1	100 to 103
O=C1C(=CO)CSc2ccc(Cl)cc21	103 to 104
O=C(NC1CN(Cc2ccccc2)CCN(Cc2ccccc2)C1)c1n[nH]c2ccccc12	115 to 116
O=C1NCCN1c1ccc(S(=O)(=O)Nc2ccc(F)c(F)c2)cc1	225 to 226
O=C(O)C(CCc1ccccc1)Oc1ccc(-c2ccc(-c3c(Cc4ccccc4)oc4ccccc34)cc2)cc1 (stereo unspecified)	152 to 154
O=C1Cc2ccc(F)cc2C(c2ccc(Cl)cc2)N1 (stereo unspecified)	131 to 133
CC(=O)OCC(=O)C1(OC(=O)c2ccccc2)CCC2C3CC(C)C4=CC(=O)CCC4(C)C3C(O)CC21C (stereo unspecified)	210
Cc1sc(-c2ccccc2)nc1COc1ccc(COc2ncccc2CC#N)cc1	161 to 162
O=C(NCCO)c1ccccc1S(=O)(=O)Cc1c(O[C@H](Cn2ccnc2)c2ccccc2)ccc2c1CCCC2=O	241 to 243
CC(C)(CCCCCCC(C)(C)CCC(=O)O)CCC(=O)O	88 to 89
COC(=O)[C@@H]1COC(=S)N1Cc1ccccc1	101 to 102
O=C(O)COc1ccc(-c2c(Cl)c(CN3C(=O)CCC3=O)nc3sc4c(c23)CCS(=O)C4)cc1 (stereo unspecified)	205 to 206
CNC(=O)NCc1cccc2c1S(=O)(=O)N=C2C1=C(O)C(C(C)(C)C)N(Cc2ccc(F)cc2)C1=O (stereo unspecified)	> 250
CO[C@]1(c2csc(S(=O)(=O)c3ccc4c(c3)CC/C4=N\O)c2)CCO[C@@H]1C (racemic)	170 to 172
COCCc1nc2c(N)nc3ccccc3c2n1CCOCCNC(=O)c1ccc(C(=O)NCCOCCn2c(CCOC)nc3c(N)nc4ccccc4c32)cc1	229 to 233
ICCOc1ccc(C2=C(c3ccccc3)CCCc3cc(OC4CCCCO4)ccc32)cc1 (stereo unspecified)	165 to 166
O=S1(=O)N=C(NCC2CC2)Nc2ccc(C(F)(F)F)cc21	266 to 268

Continued, values first:

melting point [°C]	SMILES
136 to 145	Cc1ccnc(NC(c2ccc([N+](=O)[O-])cc2)c2ccccc2O)n1 (stereo unspecified)
124	COc1cccc(-c2ccc3c(C(=O)Nc4onc(C)c4C)c(OC)ccc3c2)c1
169 to 170	CCCC(=O)NCCCCn1c(C)nc2c(N)nc3ccccc3c21
139 to 140	CSc1ccc(-c2cc(C(C)C)nc(N)n2)c2ccccc12
120	O=C(O)C(=O)c1ccc(OCc2cc3ccccc3o2)cc1
106	Clc1ccc2c(c1)CCc1cccc3c1C2CN=C3 (stereo unspecified)
133	Cc1cccc(-c2nc(Cl)cc(-c3ccccc3Cl)n2)n1
135 to 138	Cc1cccc(Nc2cc(Nc3ccc(OCC(=O)N(C)C)cc3)ncn2)c1
158 to 160	Nc1c(Cl)c(Oc2ccccc2)nc(C(=O)O)c1Cl
172 to 173	COc1ccc2nc(N)nc(C3CCN(C(=O)c4ccccc4)CC3)c2c1
171 to 172	CC1CC(=O)N(c2cc(Cc3n[nH]c(=O)c4ccccc34)ccc2F)C1=O (stereo unspecified)
